Columns and labels:
KDR [1] = target: T1, KDR (Homo sapiens, UniProt P35968); assay: KDR autophosphorylation ELISA in HUVEC cells; type: cell-based; design: endogenous in cells; host or cells: HUVEC (Lonza #C2519A); details: cellular activity, VEGF165-stimulated, phospho-KDR ELISA
How it was run: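 Inhibition of VEGF165-induced KDR phosphorylation was determined in serum-starved HUVEC after 1 h compound pretreatment and 5 min stimulation with 100 ng/mL VEGF165. Lysate phospho-KDR was measured by ELISA; IC50 values came from a 4-parameter logistic fit of 8-point curves.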
Target sequence in this assay (P35968 20-1356): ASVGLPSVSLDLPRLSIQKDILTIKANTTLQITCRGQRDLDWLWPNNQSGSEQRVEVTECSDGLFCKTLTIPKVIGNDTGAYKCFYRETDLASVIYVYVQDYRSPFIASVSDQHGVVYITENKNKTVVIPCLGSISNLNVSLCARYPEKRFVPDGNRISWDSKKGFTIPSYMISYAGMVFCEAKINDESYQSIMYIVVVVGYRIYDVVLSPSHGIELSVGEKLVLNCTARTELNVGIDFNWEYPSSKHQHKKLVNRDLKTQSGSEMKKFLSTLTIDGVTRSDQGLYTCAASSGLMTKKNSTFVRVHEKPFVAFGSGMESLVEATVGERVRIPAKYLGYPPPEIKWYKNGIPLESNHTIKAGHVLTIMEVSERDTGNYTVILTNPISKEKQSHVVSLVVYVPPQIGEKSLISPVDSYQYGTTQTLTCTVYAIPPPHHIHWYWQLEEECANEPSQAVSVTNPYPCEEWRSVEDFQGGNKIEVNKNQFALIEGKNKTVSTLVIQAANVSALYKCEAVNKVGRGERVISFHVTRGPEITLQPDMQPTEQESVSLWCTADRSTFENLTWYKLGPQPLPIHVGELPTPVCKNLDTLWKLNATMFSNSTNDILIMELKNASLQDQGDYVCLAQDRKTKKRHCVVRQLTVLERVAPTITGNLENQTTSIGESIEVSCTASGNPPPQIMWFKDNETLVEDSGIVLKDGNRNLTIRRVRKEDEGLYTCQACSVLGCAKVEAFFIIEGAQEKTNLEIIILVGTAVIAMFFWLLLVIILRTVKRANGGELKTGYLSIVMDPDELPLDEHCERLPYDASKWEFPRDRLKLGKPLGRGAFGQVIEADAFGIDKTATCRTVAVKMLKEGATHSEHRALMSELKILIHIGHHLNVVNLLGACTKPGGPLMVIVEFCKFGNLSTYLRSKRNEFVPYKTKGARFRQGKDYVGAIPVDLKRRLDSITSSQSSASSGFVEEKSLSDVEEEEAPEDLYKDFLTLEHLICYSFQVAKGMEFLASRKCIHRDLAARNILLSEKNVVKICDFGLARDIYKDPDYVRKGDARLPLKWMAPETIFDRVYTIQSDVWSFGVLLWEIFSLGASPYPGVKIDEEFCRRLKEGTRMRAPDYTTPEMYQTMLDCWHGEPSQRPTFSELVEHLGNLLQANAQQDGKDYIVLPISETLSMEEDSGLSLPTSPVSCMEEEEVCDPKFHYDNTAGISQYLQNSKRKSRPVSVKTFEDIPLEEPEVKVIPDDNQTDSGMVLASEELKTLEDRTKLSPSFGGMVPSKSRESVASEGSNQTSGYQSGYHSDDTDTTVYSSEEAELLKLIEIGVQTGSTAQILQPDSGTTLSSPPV

KDR [2] = target: T1, KDR; assay: Human KDR kinase assay (33P-phosphoryl transfer radiometric, KinaseProfiler); design: Human KDR (residues K790-V1356, 55 nM); purchased Eurofins Pharma Discovery Services UK Limited (KinaseProfiler service); details: biochemical activity; 10 μM ATP
Experimental: (§1) Kinase activity and compound inhibition were investigated using the ^33P-Phosphoryl transfer radiometric kinase assay, performed using the KinaseProfiler™ service of Eurofins Pharma Discovery Services UK Limited. Dose-response experiments were performed using nine compound concentrations in a 96-well microtiter plate. For each assay, all compounds were prepared to a 50× final assay concentration (50 μM) in 100% DMSO, then diluted in a half-log series, with the final top concentration at 1 μM. This working stock of the compound was added to the assay well as the first component in the reaction, followed by the remaining components as detailed in the following assay protocols below. The positive control wells (100% kinase activity) contain all components of the reaction including 2% DMSO (control for solvent effects), except the compound of interest. Blank wells contain all components of the reaction, with the reference inhibitor, staurosporine. This reference compound was used to abolish kinase activity and generated the 0% kinase activity base-line. IC50 values were calculated by nonlinear regression analysis using the sigmoidal dose-response (variable slope) curve fit on XLFit version 5.3 (ID Business Solutions).
(§2) Human KDR (residues K790-V1356, 55 nM) was incubated with 8 mM MOPS pH 7.0, 0.2 mM EDTA, 0.33 mg/mL myelin basic protein, 10 mM magnesium acetate, and 10 μM [γ-^33P-ATP]. The reaction was initiated by the addition of the Mg/ATP mix. After incubation for 40 minutes at room temperature, the reaction was stopped by the addition of phosphoric acid to a concentration of 0.5%. A reaction aliquot of 10 μL was then spotted onto a P30 filtermat and washed four times for 4 minutes in 0.425% phosphoric acid and once in methanol prior to drying and scintillation counting. Incorporated ^33P was measured using the Wallac Microbeta scintillation counter (Perkin Elmer).
Target sequence in this assay (P35968 790-1356): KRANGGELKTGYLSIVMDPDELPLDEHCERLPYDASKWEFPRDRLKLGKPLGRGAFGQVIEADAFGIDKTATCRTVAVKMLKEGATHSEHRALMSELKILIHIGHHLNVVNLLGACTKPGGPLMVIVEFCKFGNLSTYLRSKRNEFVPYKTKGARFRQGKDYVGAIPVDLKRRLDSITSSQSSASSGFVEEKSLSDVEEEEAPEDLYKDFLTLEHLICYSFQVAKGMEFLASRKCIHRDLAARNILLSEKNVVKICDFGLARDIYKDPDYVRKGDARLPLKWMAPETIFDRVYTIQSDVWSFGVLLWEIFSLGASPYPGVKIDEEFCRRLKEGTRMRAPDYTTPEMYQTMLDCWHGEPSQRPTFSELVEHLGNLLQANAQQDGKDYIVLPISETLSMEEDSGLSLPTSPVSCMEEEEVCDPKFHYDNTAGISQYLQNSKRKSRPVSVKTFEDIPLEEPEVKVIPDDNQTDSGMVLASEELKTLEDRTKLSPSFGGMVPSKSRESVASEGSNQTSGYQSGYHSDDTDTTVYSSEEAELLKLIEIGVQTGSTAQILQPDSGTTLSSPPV

Met = Met (Homo sapiens, UniProt P08581); assay: Human Met kinase assay (33P-phosphoryl transfer radiometric, KinaseProfiler); design: Human Met (residues R974-S1390 with A1209G and V1290L, 3.4 nM); purchased Eurofins Pharma Discovery Services UK Limited (KinaseProfiler service); details: biochemical activity; 10 μM ATP; read-out: c-Met IC50
Experimental: as §1
as §2, with “Met” for “KDR”, “R974-S1390 with A1209G and V1290L, 3.4” for “K790-V1356, 55”, “250 μM KKKGQEEEYVFIE, 1 mM sodium orthovanadate, 5 mM […],” for “0.33 mg/mL myelin basic protein,”

Met, sequence (P08581 974-1390): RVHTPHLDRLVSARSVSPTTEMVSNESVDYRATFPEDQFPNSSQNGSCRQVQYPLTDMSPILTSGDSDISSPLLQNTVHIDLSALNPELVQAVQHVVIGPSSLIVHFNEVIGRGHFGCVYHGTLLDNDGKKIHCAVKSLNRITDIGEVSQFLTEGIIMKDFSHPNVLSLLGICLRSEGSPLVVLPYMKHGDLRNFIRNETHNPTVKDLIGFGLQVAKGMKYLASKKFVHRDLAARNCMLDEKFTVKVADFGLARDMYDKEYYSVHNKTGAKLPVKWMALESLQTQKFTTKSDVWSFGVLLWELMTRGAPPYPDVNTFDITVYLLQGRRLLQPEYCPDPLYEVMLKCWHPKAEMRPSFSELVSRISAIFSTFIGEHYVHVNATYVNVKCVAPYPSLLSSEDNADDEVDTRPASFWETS

IC50 (KDR [1]) [nM] | IC50 (KDR [2]) [nM] | IC50 (Met) [nM] | Compound
10 to 100 | 10 to 100 | ≤ 10 | O=C(Nc1ccc(F)cc1)C1(C(=O)Nc2ccc(Oc3ccnc4cc(-c5cnn(CCF)c5)ccc34)cc2)CC1 [Compound 14, 1-N-[4-[7-[1-(2-Fluoroethyl)pyrazol-4-yl]quinolin-4-yl]oxyphenyl]-1-N′-(4-fluorophenyl)cyclopropane-1,1-dicarboxamide]
≤ 10 | 10 to 100 | ≤ 10 | CC(=O)N1CCC(n2cc(-c3ccc4c(Oc5ccc(NC(=O)C6(C(=O)Nc7ccc(F)cc7)CC6)cc5)ccnc4c3)cn2)CC1 [Compound 62, 1-N-[4-[7-[1-(1-Acetylpiperidin-4-yl)pyrazol-4-yl]quinolin-4-yl]oxyphenyl]-1-N′-(4-fluorophenyl)cyclopropane-1,1-dicarboxamide]
> 300 | 100 to 1000 | 100 to 1000 | O=C(Nc1ccc(F)cc1)C1(C(=O)Nc2ccc(Oc3ccnc4cc(-c5cnn[nH]5)ccc34)cc2)CC1 [Compound 65, 1-N′-(4-Fluorophenyl)-1-N-[4-[7-(1H-triazol-5-yl)quinolin-4-yl]oxyphenyl]cyclopropane-1,1-dicarboxamide]
≤ 10 | 10 to 100 | ≤ 10 | O=C(Nc1ccc(F)cc1)C1(C(=O)Nc2ccc(Oc3ccnc4cc(-c5cn[nH]c5)ccc34)cc2)CC1 [Compound 67, 1-N′-(4-Fluorophenyl)-1-N-[4-[7-(1H-pyrazol-4-yl)quinolin-4-yl]oxyphenyl]cyclopropane-1,1-dicarboxamide]
> 300 | 100 to 1000 | 100 to 1000 | CN(C(=O)C1(C(=O)Nc2ccc(Oc3ccnc4cc(-c5cnn(C)c5)ccc34)cc2)CC1)c1ccc(F)cc1 [Compound 82A, 1-N′-(4-Fluorophenyl)-1-N′-methyl-1-N-[4-[7-(1-methylpyrazol-4-yl)quinolin-4-yl]oxyphenyl]cyclopropane-1,1-dicarboxamide]
≤ 10 | 10 to 100 | ≤ 10 | Cn1cc(-c2ccc3c(Oc4ccc(NC(=O)C5(C(=O)Nc6ccc(F)cc6)CC5)cc4)ccnc3c2)cn1 [Compound 11, 1-N′-(4-Fluorophenyl)-1-N-[4-[7-(1-methylpyrazol-4-yl)quinolin-4-yl]oxyphenyl]cyclopropane-1,1-dicarboxamide]
10 to 100 | 10 to 100 | ≤ 10 | COc1cc2c(Oc3ccc(NC(=O)C4(C(=O)Nc5ccc(F)cc5)CC4)cc3)ccnc2cc1-c1cnn(C)c1 [Compound 76, 1-N′-(4-Fluorophenyl)-1-N-[4-[6-methoxy-7-(1-methylpyrazol-4-yl)quinolin-4-yl]oxyphenyl]cyclopropane-1,1-dicarboxamide]
10 to 100 | 10 to 100 | ≤ 10 | O=C(Nc1ccc(F)cc1)C1(C(=O)Nc2ccc(Oc3ccnc4cc(-c5cnn(CC(F)F)c5)ccc34)cc2)CC1 [Compound 15, 1-N-[4-[7-[1-(2,2-Difluoroethyl)pyrazol-4-yl]quinolin-4-yl]oxyphenyl]-1-N′-(4-fluorophenyl)cyclopropane-1,1-dicarboxamide]
10 to 100 | 10 to 100 | ≤ 10 | O=C(Nc1ccc(F)cc1)C1(C(=O)Nc2ccc(Oc3ccnc4cc(-c5cnoc5)ccc34)cc2)CC1 [Compound 57, 1-N′-(4-Fluorophenyl)-1-N-[4-[7-(1,2-oxazol-4-yl)quinolin-4-yl]oxyphenyl]cyclopropane-1,1-dicarboxamide]
≤ 10 | 10 to 100 | ≤ 10 | Cn1ncc(-c2ccc3c(Oc4ccc(NC(=O)C5(C(=O)Nc6ccc(F)cc6)CC5)cc4)ccnc3c2)n1 [Compound 86, 1-N′-(4-Fluorophenyl)-1-N-[4-[7-(2-methyltriazol-4-yl)quinolin-4-yl]oxyphenyl]cyclopropane-1,1-dicarboxamide]
10 to 100 | 10 to 100 | ≤ 10 | Cc1cc2c(Oc3ccc(NC(=O)C4(C(=O)Nc5ccc(F)cc5)CC4)cc3)ccnc2cc1-c1cnn(C)c1 [Compound 78, 1-N′-(4-Fluorophenyl)-1-N-[4-[6-methyl-7-(1-methylpyrazol-4-yl)quinolin-4-yl]oxyphenyl]cyclopropane-1,1-dicarboxamide]
≤ 10 | 10 to 100 | ≤ 10 | O=C(Nc1ccc(F)cc1)C1(C(=O)Nc2ccc(Oc3ccnc4cc(-c5ncc[nH]5)ccc34)cc2)CC1 [Compound 74, 1-N′-(4-Fluorophenyl)-1-N-[4-[7-(1H-imidazol-2-yl)quinolin-4-yl]oxyphenyl]cyclopropane-1,1-dicarboxamide]
10 to 100 | ≤ 10 | ≤ 10 | O=C(Nc1ccc(F)cc1)C1(C(=O)Nc2ccc(Oc3ccnc4cc(-c5cncnc5)ccc34)cc2)CC1 [Compound 27, 1-N′-(4-Fluorophenyl)-1-N-[4-(7-pyrimidin-5-ylquinolin-4-yl)oxyphenyl]cyclopropane-1,1-dicarboxamide]
≤ 10 | ≤ 10 | ≤ 10 | O=C(Nc1ccc(F)cc1)C1(C(=O)Nc2ccc(Oc3ccnc4cc(-c5cnn(CCO)c5)ccc34)cc2)CC1 [Compound 18, 1-N′-(4-Fluorophenyl)-1-N-[4-[7-[1-(2-hydroxyethyl)pyrazol-4-yl]quinolin-4-yl]oxyphenyl]cyclopropane-1,1-dicarboxamide]
≤ 10 | 10 to 100 | ≤ 10 | CCn1cc(-c2ccc3c(Oc4ccc(NC(=O)C5(C(=O)Nc6ccc(F)cc6)CC5)cc4)ccnc3c2)cn1 [Compound 20, 1-N-[4-[7-(1-Ethylpyrazol-4-yl)quinolin-4-yl]oxyphenyl]-1-N′-(4-fluorophenyl)cyclopropane-1,1-dicarboxamide]
10 to 100 | 10 to 100 | ≤ 10 | O=C(Nc1ccc(F)cc1)C1(C(=O)Nc2ccc(Oc3ccnc4cc(-c5cnn(CCN6CCOCC6)c5)ccc34)cc2)CC1 [Compound 19, 1-N′-(4-Fluorophenyl)-1-N-[4-[7-[1-(2-morpholin-4-ylethyl)pyrazol-4-yl]quinolin-4-yl]oxyphenyl]cyclopropane-1,1-dicarboxamide]
≤ 10 | 10 to 100 | ≤ 10 | CS(=O)(=O)n1cc(-c2ccc3c(Oc4ccc(NC(=O)C5(C(=O)Nc6ccc(F)cc6)CC5)cc4)ccnc3c2)cn1 [Compound 79, 1-N′-(4-Fluorophenyl)-1-N-[4-[7-(1-methylsulfonylpyrazol-4-yl)quinolin-4-yl]oxyphenyl]cyclopropane-1,1-dicarboxamide]
